PubChem BioAssay AID296 (DTP/NCI, 2004)
Results filed as inconclusive are left out. Where a SMILES comes first, the peptide text is derived from it. The star is where a group is joined. Trt = c1ccc(C(c2ccccc2)(c2ccccc2)*)cc1; Cbz = O=C(OCc1ccccc1)*

System: MX-1 breast xenograft, nude mice, tumor weight T/C
Assay: NCI In Vivo Anticancer Drug Screen. Data for tumor model Human Mammary Carcinoma MX-1 Xenograft (intrarenal inoculation) in NU/NU Swiss (nude) mice
Conditions: endpoint: mean tumor weight change, higher = larger tumour
In short: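 Antitumour effect measured in vivo against vehicle controls, expressed as T/C.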

[1] = dose: 150.0 mg/kg/injection, schedule: Q04DX003 (sc), vehicle: Klucel (hydroxypropylcellulose) (HPC)
[2] = dose: 150.0 mg/kg/injection, schedule: Q04DX003 (sc), vehicle: saline with Tween-80
[3] = dose: 300.0 mg/kg/injection, schedule: Q04DX003 (sc), vehicle: saline with Tween-80
[4] = dose: 300.0 mg/kg/injection, schedule: Q04DX003 (sc), vehicle: saline
[5] = dose: 600.0 mg/kg/injection, schedule: Q04DX003 (sc), vehicle: saline
[6] = dose: 1200.0 mg/kg/injection, schedule: Q04DX003 (sc), vehicle: saline

Question: With `C=C(c1ccc(OC)c(OC)c1)c1nccc2cc(OC)c(OC)cc12` as the compound, how does the T/C [1] read?
Answer: Its T/C is 91 % of control.

Question: What about the T/C (dose: 300.0 mg/kg/injection, schedule: Q04DX003 (sc), vehicle: Klucel (hydroxypropylcellulose) (HPC)) of the same compound?
Answer: The T/C was 71 % of control.

Question: What about the T/C (dose: 600.0 mg/kg/injection, schedule: Q04DX003 (sc), vehicle: Klucel (hydroxypropylcellulose) (HPC)) of the same compound?
Answer: Its T/C is 89 % of control.

Question: And the T/C (dose: 1200.0 mg/kg/injection, schedule: Q04DX003 (sc), vehicle: Klucel (hydroxypropylcellulose) (HPC))?
Answer: Its T/C is 54 % of control.

Question: How did the T/C (dose: 50.0 mg/kg/injection, schedule: Q01DX010 (sc), vehicle: saline with Tween-80) turn out when `CCN(CC)CCCC(C)Nc1c2ccc(Cl)cc2nc2ccc(OC)cc12` (stereo not drawn) was run?
Answer: Its T/C is 158 % of control.

Question: What about the T/C (dose: 100.0 mg/kg/injection, schedule: Q01DX010 (sc), vehicle: saline with Tween-80) of the same compound?
Answer: The T/C was 110 % of control.

Question: Which results are given for `O=C(C/C(=N\C(=S)Nc1cc(C(F)(F)F)ccc1Cl)NO)N1CCCC1`?
Answer: T/C [2]: 88 % of control; T/C [3]: 94 % of control; T/C (dose: 600.0 mg/kg/injection, schedule: Q04DX003 (sc), vehicle: saline with Tween-80): 82 % of control; T/C (dose: 1200.0 mg/kg/injection, schedule: Q04DX003 (sc), vehicle: saline with Tween-80): 98 % of control

Question: With `Nc1cccc(=O)[nH]1` as the compound, how does the T/C [4] read?
Answer: The T/C was 92 % of control.

Question: What about the T/C [5] of the same compound?
Answer: Its T/C is 95 % of control.

Question: And the T/C [6]?
Answer: Its T/C is 102 % of control.

Question: For `O=CC(S)CO` (stereo not drawn), which T/C (dose: 100.0 mg/kg/injection, schedule: Q04DX003 (sc), vehicle: suspension in saline) is on record?
Answer: Its T/C is 151 % of control.

Question: `C1CCC(NC2CCCCC2)CC1` was tested. Which T/C (dose: 75.0 mg/kg/injection, schedule: Q04DX003 (ip), vehicle: saline) did it give?
Answer: Its T/C is 119 % of control.

Question: What about the T/C (dose: 150.0 mg/kg/injection, schedule: Q04DX003 (ip), vehicle: saline) of the same compound?
Answer: Its T/C is 174 % of control.

Question: Which results are given for `COC(=O)C(CSC(c1ccccc1)(c1ccccc1)c1ccccc1)NC(=O)C(CC(N)=O)NC(=O)OCc1ccccc1` (stereo not drawn) (Cbz-Asn-Cys(Trt)-OMe; configuration not given here)?
Answer: T/C (dose: 300.0 mg/kg/injection, schedule: Q04DX003 (sc), vehicle: distilled water + Tween-80): 97 % of control; T/C (dose: 600.0 mg/kg/injection, schedule: Q04DX003 (sc), vehicle: distilled water + Tween-80): 77 % of control; T/C (dose: 1200.0 mg/kg/injection, schedule: Q04DX003 (sc), vehicle: distilled water + Tween-80): 78 % of control; T/C (dose: 2400.0 mg/kg/injection, schedule: Q04DX003 (sc), vehicle: distilled water + Tween-80): 94 % of control

Question: For `COC(=O)C(N)Cc1ccc(O)c(O)c1` (stereo not drawn), which T/C [4] is on record?
Answer: The T/C was 106 % of control.

Question: And the T/C [5]?
Answer: Its T/C is 101 % of control.

Question: And the T/C [6]?
Answer: The T/C was 105 % of control.

Question: With `CCOC(=O)C(CC(C)C)NC(=O)C(N)Cc1ccc(N(CCCl)CCCl)cc1` (stereo not drawn) as the compound, how does the T/C (dose: 60.0 mg/kg/injection, schedule: Q04DX003 (sc), vehicle: water) read?
Answer: The T/C was -100 % of control.

Question: For `N=C(N)CCCCCCCCC(=N)N`, which T/C (dose: 18.75 mg/kg/injection, schedule: Q04DX003 (sc), vehicle: saline) is on record?
Answer: The T/C was 124 % of control.

Question: How did the T/C (dose: 75.0 mg/kg/injection, schedule: Q04DX003 (sc), vehicle: saline) turn out when `O=C(O)C(O)C(O)C1[O][Sb][O]C1C(=O)O` (stereo not drawn) was run?
Answer: Its T/C is 91 % of control.

Question: What about the T/C (dose: 150.0 mg/kg/injection, schedule: Q04DX003 (sc), vehicle: saline) of the same compound?
Answer: The T/C was 99 % of control.

Question: What does the source list for `CCN(CC)CCOC(=O)Cc1cccc2c(=O)cc(-c3ccccc3)oc12`?
Answer: T/C (dose: 100.0 mg/kg/injection, schedule: Q04DX003 (sc), vehicle: saline with Tween-80): 107 % of control; T/C (dose: 200.0 mg/kg/injection, schedule: Q04DX003 (sc), vehicle: saline with Tween-80): 102 % of control

Question: Which T/C (dose: 25.0 mg/kg/injection, schedule: Q01DX010 (ip), vehicle: Klucel (hydroxypropylcellulose) (HPC)) does the source give for `CNc1nc(NC)nc(NC)n1` here?
Answer: Its T/C is 164 % of control.

Question: What about the T/C (dose: 100.0 mg/kg/injection, schedule: Q01DX010 (ip), vehicle: Klucel (hydroxypropylcellulose) (HPC)) of the same compound?
Answer: The T/C was 61 % of control.

Question: And the T/C (dose: 100.0 mg/kg/injection, schedule: Q01DX010 (sc), vehicle: Klucel (hydroxypropylcellulose) (HPC))?
Answer: The T/C was 93 % of control.

Question: And the T/C (dose: 200.0 mg/kg/injection, schedule: Q01DX010 (ip), vehicle: Klucel (hydroxypropylcellulose) (HPC))?
Answer: The T/C was 40 % of control.

Question: Which results are given for `C1=CCOCOC1`?
Answer: T/C [2]: 71 % of control; T/C [3]: 70 % of control

Question: How did the T/C (dose: 37.5 mg/kg/injection, schedule: Q04DX003 (sc), vehicle: Klucel (hydroxypropylcellulose) (HPC)) turn out when `O=C1C=CC(=O)N1c1ccc(Cl)cc1` was run?
Answer: The T/C was 79 % of control.

Question: And the T/C (dose: 75.0 mg/kg/injection, schedule: Q04DX003 (sc), vehicle: Klucel (hydroxypropylcellulose) (HPC))?
Answer: Its T/C is 91 % of control.

Question: What about the T/C [1] of the same compound?
Answer: Its T/C is 85 % of control.
